Data set [1] relates to Trypanosoma brucei brucei. The experiment in a line: Trypanocidal activity against bloodstream trypomastigote stage of wild-type Trypanosoma brucei brucei Lister 427 at 3 times EC50 after 4 hrs by propidium iodide staining based fluorimetric assay. It counts as functional.
Data set [2] relates to Trypanosoma brucei brucei. Put plainly: Induction of plasma membrane disruption in bloodstream trypomastigote stage of wild-type Trypanosoma brucei brucei Lister 427 assessed as increase in propidium iodide influx after 6 hrs by fluorimetric assay. The class given is functional.
Data set [3] has as its system Trypanosoma brucei brucei. Put plainly: Anti-parasitic activity against diminazene, pentamidine and melaminophenyl arsenical-resistant bloodstream trypomastigote stage of Trypanosoma brucei brucei B48 harboring TbAT1 deletion mutant after 48 hrs by alamar blue based fluorescence assay. It counts as functional. The following applies: B48, 48 h.
The nature of data set [4]: Selectivity index, ratio of CC50 for HFF cells to EC50 for bloodstream form of Trypanosoma congolense IL3000. The following applies: human, read-out: Ratio CC50/EC50. It counts as toxicity.
Data set [5] is described as follows: Resistance factor, ratio of EC50 for diminazene, pentamidine and melaminophenyl arsenical-resistant bloodstream trypomastigote stage of Trypanosoma brucei brucei B48 harboring TbAT1 deletion mutant to EC50 for bloodstream trypomastigote stage of wild-type Trypanosoma brucei brucei Lister 427. It counts as functional.
Data set [6] has as its system Trypanosoma brucei brucei. Put plainly: Cell cycle arrest in bloodstream trypomastigote stage of wild-type Trypanosoma brucei brucei Lister 427 assessed as accumulation at G1 phase at 0.005 uM after 24 hrs by propidium iodide staining-based flow cytometry. The class given is functional.
Data set [7] has as its system Trypanosoma brucei brucei. Put plainly: Induction of mitochondrial membrane depolarization in bloodstream trypomastigote stage of wild-type Trypanosoma brucei brucei Lister 427 at 0.005 uM after 10 mins by TMRE dye based flow cytometry. It counts as functional. For orientation: In flow cytometry, cells or beads pass a laser one at a time.
The subject of data set [8] is Trypanosoma brucei brucei. Put plainly: Anti-parasitic activity against bloodstream trypomastigote stage of wild-type Trypanosoma brucei brucei Lister 427 after 48 hrs by alamar blue based fluorescence assay. It counts as functional. As to conditions: Lister 427, 48 h.
In data set [9] the test system is Trypanosoma brucei brucei. The experiment in a line: Anti-parasitic activity against bloodstream trypomastigote stage of Trypanosoma brucei brucei Lister 427 over-expressing TAO relative to bloodstream trypomastigote stage of wild-type Trypanosoma brucei brucei Lister 427. The class given is functional.
A short description of data set [10]: Inhibition of recombinant MTS-deficient N-terminal His6-tagged and SUMO-tagged Trypanosoma alternative oxidase expressed in Escherichia coli FN102 using ubiquinol-1 as substrate.
Data set [11] relates to Trypanosoma brucei brucei. The experiment in a line: Trypanocidal activity against bloodstream trypomastigote stage of wild-type Trypanosoma brucei brucei Lister 427 assessed as inhibition of respiration in presence of glycerol. It counts as functional.
The nature of data set [12]: Cytotoxicity against HFF cells after 30 hrs by resazurin based fluorimetric assay. The class given is cell-based. The following applies: human. For orientation: The colour change of resazurin is a common sign of viable cells or microbes.
Another data set concerns Trypanosoma congolense. The experiment in a line: Anti-parasitic activity against bloodstream form of Trypanosoma congolense IL3000 after 48 hrs by alamar blue based fluorescence assay. The class given is functional. As to conditions: IL3000, 48 h.
Data set [13] concerns Trypanosoma brucei brucei. Put plainly: Reduction in oxygen consumption in bloodstream trypomastigote stage of wild-type Trypanosoma brucei brucei Lister 427 measured immediately for 120 mins by fluorescent oxygen reporter probe based fluorimetric assay. It counts as functional.
The subject of data set [14] is Trypanosoma brucei brucei. Put plainly: Resistant factor, ratio of EC50 for bloodstream trypomastigote stage of wild-type Trypanosoma brucei brucei Lister 427 assessed as inhibition of respiration in presence of glycerol to EC50 for bloodstream trypomastigote stage of wild-type Trypanosoma brucei brucei Lister 427 assessed as inhibition of respiration in absence of glycerol. The class given is functional.

The test system of data set [15] is Trypanosoma brucei brucei. The experiment in a line: Cell cycle arrest in bloodstream trypomastigote stage of wild-type Trypanosoma brucei brucei Lister 427 assessed as accumulation at S phase at 0.005 uM after 24 hrs by propidium iodide staining-based flow cytometry. The class given is functional.
Data set [16] is described as follows: Selectivity index, ratio of CC50 for HFF cells to EC50 for bloodstream trypomastigote stage of wild-type Trypanosoma brucei brucei Lister 427. It counts as toxicity. The following applies: human, read-out: Ratio CC50/EC50.
Data set [17] relates to Trypanosoma brucei brucei. The experiment in a line: Cell cycle arrest in bloodstream trypomastigote stage of wild-type Trypanosoma brucei brucei Lister 427 assessed as accumulation at G2 phase at 0.005 uM after 24 hrs by propidium iodide staining-based flow cytometry. It counts as functional.
In data set [18] the test system is Trypanosoma brucei brucei. Put plainly: Induction of mitochondrial membrane depolarization in bloodstream trypomastigote stage of wild-type Trypanosoma brucei brucei Lister 427 at 100 nM after 10 mins by TMRE dye based flow cytometry. It counts as functional.
The test system of data set [19] is Trypanosoma brucei brucei. Put plainly: Reduction in oxygen consumption in bloodstream trypomastigote stage of wild-type Trypanosoma brucei brucei Lister 427 at 50 uM measured immediately for 120 mins by fluorescent oxygen reporter probe based fluorimetric assay. The class given is functional.
The test system of data set [20] is Trypanosoma brucei brucei. The experiment in a line: Trypanocidal activity against bloodstream trypomastigote stage of wild-type Trypanosoma brucei brucei Lister 427 assessed as inhibition of respiration at 10 uM in presence of glycerol. The class given is functional.
The nature of data set [21]: Selectivity index, ratio of CC50 for HEK293T cells to EC50 for bloodstream form of Trypanosoma congolense IL3000. As to conditions: human, read-out: Ratio CC50/EC50. The class given is toxicity.
Data set [22] in a line: Cytotoxicity against HEK cells up to 50 uM after 30 hrs by resazurin based fluorimetric assay. It counts as cell-based. As to conditions: human.
Data set [23] can be described thus: Cytostatic activity against HEK293T cells after 30 hrs by resazurin based fluorimetric assay. It counts as cell-based, HEK-293T. The following applies: human.
A short description of data set [24]: Selectivity index, ratio of CC50 for HEK293T cells to EC50 for bloodstream trypomastigote stage of wild-type Trypanosoma brucei brucei Lister 427. The class given is toxicity. The following applies: human, read-out: Ratio CC50/EC50.
The subject of data set [25] is Trypanosoma brucei brucei. Put plainly: Trypanocidal activity against bloodstream trypomastigote stage of wild-type Trypanosoma brucei brucei Lister 427 assessed as inhibition of respiration at 10 uM. The class given is functional.
Data set [26] relates to Trypanosoma brucei brucei. The experiment in a line: Induction of mitochondrial membrane hyperpolarization in bloodstream trypomastigote stage of wild-type Trypanosoma brucei brucei Lister 427 at 10 uM after 10 mins by TMRE dye based flow cytometry. It counts as functional.

Activity calls are given as the source filed them. No cut-off for these calls is given here.

Broadly, the EC50 is the concentration needed to bring the measured effect to its halfway point. In general, IC50 refers to the concentration at which inhibition is half-maximal. The CC50 is the concentration at which the toxic effect on the cells reaches its halfway point.

For `O=C(OCCCCCCCCCCCCCC[P+](c1ccccc1)(c1ccccc1)c1ccccc1)c1ccc(O)cc1O.[Br-]`, the result in [1], in data set [6], in [7], in [15] and in data set [17] was Active. The Activity entry in [2] and in data set [13] was “Dose-dependent effect” throughout. Also, the EC50 was found to be 1.2 nM in data set [3], 1.5 nM in [8], 0.8 nM in data set [11] and 61 nM in the data set on Trypanosoma congolense. Further, the selectivity ratio in data set [4] was found to be 982; in data set [16] it was 23400. In addition, the results for the Ratio EC50 in data set [5] and in [14] were 0.78 and 0.55, respectively. In addition, in [9], the “fold change (FC)” value stood at 2.6. Also, the concentration for half-maximal inhibition (IC50) in data set [10] worked out at 1460 nM. Besides, the midpoint of cytotoxicity in data set [12], the CC50 at 30 h, lay at 59700 nM.

As for `O=C(O)c1ccc(O)cc1O` [2,4-DIHYDROXYBENZOIC ACID], the values for the EC50 in data set [8] and in [11] were 17100 nM and 19000 nM, respectively. Further, in data set [10], the IC50 was found to be 116000 nM. The “Ratio EC50” value in data set [14] was found to be 1.11.

`CC(C)[C@@H]1NC(=O)[C@H](C)OC(=O)[C@@H](C(C)C)NC(=O)[C@@H](C(C)C)OC(=O)[C@H](C(C)C)NC(=O)[C@H](C)OC(=O)[C@@H](C(C)C)NC(=O)[C@@H](C(C)C)OC(=O)[C@H](C(C)C)NC(=O)[C@H](C)OC(=O)[C@@H](C(C)C)NC(=O)[C@@H](C(C)C)OC1=O`: in [18], the result was Active.

For `O=C(NO)c1ccccc1O` [SALICYLHYDROXAMIC ACID], the result in data set [19] was Active. Also, the EC50 in data set [8] came out at 38700 nM; in data set [11] it was 7000 nM. Besides, the “fold change (FC)” value in data set [9] is 1.6. In addition, the Activity result in [13] was “Dose-dependent effect”.

Take `O=C(OCCCCCCCCCCCC[n+]1cccc2ccccc21)c1ccc(O)cc1O.[Br-]`: the EC50 in data set [3] stood at 347 nM; in data set [8], 330 nM; in data set [11], 230 nM; in the data set with Trypanosoma congolense it was 7000 nM. Moreover, the selectivity ratio in [4] stood at 28.7; in data set [16], 609. Also, the Ratio EC50 came to 1.05 in data set [5] and 0.69 in data set [14]. Moreover, in data set [10], the IC50 was greater than 5000 nM. Half-maximal cytotoxicity in data set [12] (CC50 at 30 h) was put at 202000 nM.

Consider `O=C(OCCCCCCCCCCCCCC[n+]1cccc2ccccc21)c1ccc(O)cc1O.[Br-]`, for which, in data set [1], the result was Active. Further, the Activity result in [2] is “Dose-dependent effect”. Further, the EC50 stood at 125 nM in data set [3], 100 nM in [8], 78 nM in [11] and 3800 nM in the data set with Trypanosoma congolense. Moreover, the selectivity ratio is 45.3 in data set [4] and 1660 in [16]. In addition, the Ratio EC50 was found to be 1.21 in data set [5] and 0.75 in data set [14]. The half-inhibitory concentration (IC50) in data set [10] came out at 1360 nM. The same compound yielded a CC50 at 30 h in data set [12] of 172000 nM.

For `BrCCCCCCCCCC[P+](c1ccccc1)(c1ccccc1)c1ccccc1.[Br-]`, the results for the EC50 (in data set [3]; in data set [8]; with Trypanosoma congolense) were 1.2 nM, 1.8 nM and 950 nM, respectively. Also, the Ratio EC50 in data set [5] was determined as 0.7. The inhibition entry in data set [20] and in data set [25] was “inactive” each time. For the same compound, the selectivity ratio in data set [21] turned out to be 6.3; in data set [24], 3340. In addition, the Activity entry in data set [22] is “Non-Toxic”. Moreover, in data set [23], half-maximal cytotoxicity (CC50 at 30 h) was put at 6010 nM.

For the compound `O=C(OCCCCCCCCCC[P+](c1ccccc1)(c1ccccc1)c1ccccc1)c1ccc(O)cc1O.[Br-]`, the EC50 in [3] worked out at 1.1 nM; in data set [8], 1.3 nM; in data set [11], 2 nM; in the data set on Trypanosoma congolense, 180 nM. Further, the Ratio EC50 came out at 0.86 in [5] and 1.26 in data set [14]. In addition, the selectivity ratio in data set [21] was found to be 13.2; in [24] it was 1770. Moreover, the Activity entry in data set [22] is “Non-Toxic”. For the same compound, in [23], the 50% cytotoxic concentration (CC50) at 30 h is 2330 nM.

Consider `O=C(OCCCCCCCCCCCCCCCC[n+]1cccc2ccccc21)c1ccc(O)cc1O.[Br-]`, for which the concentration for a half-maximal effect (EC50) in [3] is 140 nM; in data set [8], 140 nM; in data set [11], 89 nM; in the data set with Trypanosoma congolense, 3000 nM. Further, the selectivity ratio in data set [4] stood at 115; in data set [16], 2410. The Ratio EC50 in [5] was determined as 1.01; in data set [14] it was 0.62. For the same compound, the IC50 in data set [10] is greater than 5000 nM. The compound also returned a CC50 at 30 h in data set [12] of 345000 nM.

`O=C(OCCCCCCCCCCCCCCCC[P+](c1ccccc1)(c1ccccc1)c1ccccc1)c1ccc(O)cc1O.[Br-]`: the EC50 came to 8 nM in data set [3], 9 nM in data set [8], 5 nM in [11] and 122 nM in the data set with Trypanosoma congolense. Further, the results for the selectivity ratio in data set [4] and in data set [16] were 2040 and 27700, respectively. Also, the Ratio EC50 in data set [5] is 0.91; in data set [14] it was 0.6. Besides, the 50% inhibitory concentration (IC50) in [10] is greater than 5000 nM. The compound also returned a CC50 at 30 h in [12] of 249000 nM.

As to `O=C(OCCCCCCCC[P+](c1ccccc1)(c1ccccc1)c1ccccc1)c1ccc(O)cc1O.[Br-]`, the EC50 in data set [3] stood at 68 nM; in [8] it was 73 nM; in data set [11], 84 nM; with Trypanosoma congolense it was 4300 nM. For the same compound, the Ratio EC50 in data set [5] is 0.94; in data set [14], 1.16. Also, the selectivity ratio in data set [21] worked out at 1.8; in data set [24], 106. Besides, the Activity result in data set [22] is reported as “Non-Toxic”. The compound further returned a 50% cytotoxic concentration (CC50) at 30 h in data set [23] of 7730 nM.

Turning to `Cc1c(C)c2c(c(C)c1O)CCC(C)(COc1ccc(CC3SC(=O)NC3=O)cc1)O2` (stereo unspecified), in data set [26], the result was Active.
